The text below walks through data of patent publication US11549115B2, “Compositions and methods for regulated gene expression” (YALE UNIVERSITY, priority 2017, dated 2023).

The subject of series [1] is Bt::tetR P1TDP^GH023-NanoLuc. Format: in vivo, mice. Here is the method: Germ-free Swiss Webster mice were orally gavaged with a mixture of 1×10^8 CFU of each of 14 human gut microbes shown in FIG. 12D and Table 3. With the exception of the reporter strain, all species are sensitive to gentamicin and/or erythromycin (data not shown). Colonization was allowed to stabilize for at least 7 days prior to the start of the experiment. Fecal pellets were collected daily, and mice were given aTC (100 μg/mL) in the drinking water for 48 hours after stool collection on Day 3. Fecal samples were homogenized, and fibrous/insoluble matter removed as described above. From the supernatant, 200 μL was stored for DNA purification as previously described (Goodman, A. L. et al., 2011, Nat. Protoc., 6:1969-1980) and subsequent qPCR analysis (described below), 10 μL was used for CFU determination of the reporter strain by plating dilutions on BHI-blood agar plates containing gentamicin and erythromycin, and 500 μL was used for luminescence measurements (described below).
At each time point, abundance of each species was assessed by qPCR from fecal DNA using strain specific primers described previously (Cullen, T. W. et al., 2015, Science, 347:170-175). qPCR was performed as described (Goodman, A. L. et al., 2009, Cell Host and Microbe, 6:279-289; Martens, E. C. et al., 2008, Cell Host and Microbe, 4:447-457) using a CFX96 instrument (BioRad) and SYBR FAST universal master mix (KAPA Biosystems). Mean strain quantities were calculated using a standard curve.
The 500 μL collected from the resuspended fecal supernatant was centrifuged at 21,130×g for 3 minutes to pellet bacterial cells, which were then resuspended in 50 μL 1× BugBuster (Novagen) in 1×PBS and lysed by one round of freeze-thaw and 10 minutes of nutation at 26° C. Samples were centrifuged at 21,130×g for 10 minutes at 4° C., and 10 μL of the supernatant was mixed with an equal volume of NanoLuc Reaction Buffer to induce luminescence production. Luminescence was measured after a 5 minute incubation at 26° C. on a plate reader (BioTek Synergy H1) with an integration time of 1 second at a gain setting of 100. […]

The conditions of series [2]: in vivo; cited from earlier work.
In series [3] the test system is Bt::tetR P1TDP^GH023-NanoLuc. Kind of series: Fecal luminescence in monocolonized gnotobiotic mice. In kind it is in vivo. Here is the method: Germ-free Swiss Webster mice were orally gavaged with 1×10^9 CFU of Bt::tetR P1TDP^GH023-NanoLuc and colonization was allowed to stabilize for at least 7 days prior to the start of the experiment. Fecal pellets were collected every day, and groups of mice were given aTC in the drinking water at various concentrations for 48 hours after stool collection on Day 3 and Day 17. Mice belonging to the same treatment group were co-housed for the duration of the experiment. To obtain samples for luminescence production, fecal pellets and intestinal lumen (˜100-200 mg) were homogenized in 1 mL of 1×PBS with a single 5 mm stainless steel bead using a bead beater (BioSpec Products) at 26° C. for 1 minute on the high setting, followed by vortexing at top speed for 8 minutes. Samples were centrifuged at 500×g for 1 minute to pellet fibrous and insoluble matter. The supernatant was used for CFU determination by plating dilutions on BHI-blood agar plates containing gentamicin and erythromycin, and 500 μL was used for luminescence measurements (described below).
The 500 μL collected from the resuspended fecal supernatant was centrifuged at 21,130×g for 3 minutes to pellet bacterial cells, which were then resuspended in 50 μL 1× BugBuster (Novagen) in 1×PBS and lysed by one round of freeze-thaw and 10 minutes of nutation at 26° C. Samples were centrifuged at 21,130×g for 10 minutes at 4° C., and 10 μL of the supernatant was mixed with an equal volume of NanoLuc Reaction Buffer to induce luminescence production. Luminescence was measured after a 5 minute incubation at 26° C. on a plate reader (BioTek Synergy H1) with an integration time of 1 second at a gain setting of 100. Luminescence values were normalized to colony forming units (CFUs) determined by dilution plating of the resuspended fecal supernatant on BHI-blood agar plates containing gentamicin and erythromycin.

Like-named read-outs stand apart in the source and are kept apart here.

Regarding `Cc1c2c(c(O)c3c(O)cccc13)C(=O)[C@]1(O)C(=O)C(C(N)=O)=C(O)[C@@H](N(C)C)[C@@H]1C2` [aTC, Anhydrotetracycline], the “complete repression after removal of the inducer” value in series [1] (14-species community) was 7 to 9 days. The “increase of luminescence in fecal pellets” value is ~4,500 fold in series [1] (14-species community, within 24 hours of 100 μg/mL aTC) and ~1,000 fold in series [3] (monocolonized mice, within 24 hours of aTC addition). The “impact on community structure” value in series [1] (alpha and beta diversity, 19-day experiment) is on record as “did not impact community structure”. The “growth of Bacteroides in aTC” value with Bacteroides is listed as “grow at wildtype rates”. Moreover, the “concentration in drinking water that does not adversely affect mouse health” value in series [2] was 100 µg/mL. In series [3] (CFU), the “impact on B. thetaiotaomicron stability in the gut” value is “do not impact B. thetaiotaomicron stability in the gut”. In addition, the “aTC concentration at which detectable responses start” value in series [3] (drinking water, within 24 hours) was 0.2 to 0.5 µg/mL. The “complete repression after aTC removal” value in series [3] (monocolonized mice) was determined as 9 days. Further, in series [3] (mouse, in vivo), the “range of commensal gene expression modulated inside the gut by varying aTC concentrations” value is on record as 3 orders of magnitude. Besides, in series [3] (sigmoidal fit), the “aTC concentration providing maximal gene induction in vivo” value was determined as 100 µg/mL.
